Blank lines part the entries; values can stand above or below the compound they belong to.
Tests used:
[1] = molecular target: T1, Protein-tyrosine sulfotransferase 2 (Homo sapiens, UniProt O60704); assay: Displacement of [35S]PAPS from human tyrosylprotein sulfotransferase-2 (hTPST-2); set-up: concentration or dose not given beside the values
T1 sequence (O60704 whole entry): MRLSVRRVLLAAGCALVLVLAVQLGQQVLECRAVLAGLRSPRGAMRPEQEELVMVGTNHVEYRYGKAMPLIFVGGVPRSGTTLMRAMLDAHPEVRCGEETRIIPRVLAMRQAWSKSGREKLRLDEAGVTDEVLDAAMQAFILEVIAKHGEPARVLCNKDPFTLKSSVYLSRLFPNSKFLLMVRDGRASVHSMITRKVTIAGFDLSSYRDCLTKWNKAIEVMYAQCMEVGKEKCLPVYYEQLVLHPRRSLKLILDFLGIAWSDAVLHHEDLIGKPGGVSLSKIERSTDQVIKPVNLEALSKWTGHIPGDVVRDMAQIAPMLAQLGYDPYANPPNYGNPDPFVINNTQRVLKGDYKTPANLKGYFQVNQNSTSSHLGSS

[2] = molecular target: T1, Protein-tyrosine sulfotransferase 2; assay: Inhibitory activity of compound was determined against human tyrosylprotein sulfotransferase-2 (hTPST-2) using [35S]PAPS radioligand
[3] = molecular target: T1, Protein-tyrosine sulfotransferase 2; assay: Inhibitory activity of compound was determined against human tyrosylprotein sulfotransferase-2 (hTPST-2) using [35S]PAPS radioligand at 800 uM
[4] = molecular target: T2, estrogen sulfotransferase (Sulfotransferase 1E1) (Homo sapiens, UniProt P49888); assay: Inhibitory activity of compound was determined against human estrogen sulfotransferase at 100 uM
T2 sequence (P49888 whole entry): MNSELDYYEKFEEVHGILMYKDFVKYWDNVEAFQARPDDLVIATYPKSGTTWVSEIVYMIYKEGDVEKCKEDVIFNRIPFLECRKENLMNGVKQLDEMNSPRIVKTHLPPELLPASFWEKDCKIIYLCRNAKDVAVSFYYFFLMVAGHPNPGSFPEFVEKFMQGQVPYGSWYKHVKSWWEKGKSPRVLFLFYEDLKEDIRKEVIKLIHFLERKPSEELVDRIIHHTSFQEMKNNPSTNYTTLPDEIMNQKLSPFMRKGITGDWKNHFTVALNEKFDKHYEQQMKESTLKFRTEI

[5] = molecular target: T3, Carbohydrate sulfotransferase 4 (Homo sapiens) (UniProt Q8NCG5); assay: Inhibitory activity of compound was determined against human high endothelial cell (HEC) GlcNAc-6-ST sulfotransferase at 100 uM; type: cell-based
T3 sequence (whole entry): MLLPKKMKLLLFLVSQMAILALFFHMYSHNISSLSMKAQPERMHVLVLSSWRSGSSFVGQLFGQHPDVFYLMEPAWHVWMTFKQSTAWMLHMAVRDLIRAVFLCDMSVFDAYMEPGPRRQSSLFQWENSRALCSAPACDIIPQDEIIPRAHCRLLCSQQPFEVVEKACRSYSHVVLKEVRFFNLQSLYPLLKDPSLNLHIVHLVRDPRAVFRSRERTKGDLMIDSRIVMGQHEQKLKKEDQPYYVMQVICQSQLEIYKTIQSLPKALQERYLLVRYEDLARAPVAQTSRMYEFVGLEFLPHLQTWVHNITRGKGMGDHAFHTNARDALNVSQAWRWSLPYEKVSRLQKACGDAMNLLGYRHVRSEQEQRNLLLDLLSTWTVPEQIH

Sulfotransferase 1E1 [6] = molecular target: T4, Sulfotransferase 1E1 (Homo sapiens, UniProt P49888); assay: Compound was tested for inhibition against estrogen sulfotransferase (EST), a human cytosolic sulfotransferase.
T4 sequence (P49888 whole entry): T2 sequence (P49888 whole entry)

[7] = molecular target: T1, Protein-tyrosine sulfotransferase 2; assay: Compound was tested for reversible inhibition of human tyrosylprotein sulfotransferase-2 (hTPST-2) at 40 uM for 5 hours and dialyzed
[8] = Inhibitory activity of compound was determined against bacterial GlcNAc-6-sulfotransferase (NodST) at 100 uM
[9] = molecular target: T1, Protein-tyrosine sulfotransferase 2; assay: Compound was tested for reversible inhibition of human tyrosylprotein sulfotransferase-2 (hTPST-2) at 40 uM for 5 hours and dialyzed; complete reversible inhibition observed.
[10] = molecular target: T2, estrogen sulfotransferase (Sulfotransferase 1E1); assay: Inhibitory activity of compound was determined against estrogen sulfotransferase at 100 uM
Sulfotransferase 1E1 [11] = molecular target: T4, Sulfotransferase 1E1; assay: Compound was tested for inhibition against estrogen sulfotransferase (EST), a human cytosolic sulfotransferase

Structure (SMILES): CO/N=C/c1cc(C)cc(Br)c1O
Inhibition [1]: 31%

Structure (SMILES): CO/N=C/c1cc(Br)cc([N+](=O)[O-])c1O
IC50 [2]: > 1000 µM

Structure (SMILES): CO/N=C/c1cc(Br)c(O)c(Br)c1
IC50 [2]: 425 µM

Structure (SMILES): CO/N=C/C(C)=C/c1ccco1
Inhibition [1]: 59%

Structure (SMILES): CO/N=C/C=C/c1ccc([N+](=O)[O-])o1
Inhibition [1]: 47%

Structure (SMILES): CO/N=C/c1cc(I)cc(I)c1O
Inhibition [1]: 48%

Structure (SMILES): CO/N=C/c1cc(I)c(O)c(OC)c1
Inhibition [1]: 53%

Structure (SMILES): O=c1c(/C=N/OCCCCCO/N=C/c2cc(Br)cc([N+](=O)[O-])c2O)coc2c(Cl)cc(Cl)cc12
inhibition at 100 µM [4]: 100%
inhibition [5]: 7%
IC50 [2]: 40 µM
IC50 (Sulfotransferase 1E1 [6]): 3 µM
inhibition at 40 µM [7]: 50%
inhibition [8]: 19%

Structure (SMILES): O=c1c(/C=N/OCCCCCO/N=C/c2cc(Br)c(O)c(Br)c2)coc2c(Cl)cc(Cl)cc12
inhibition [5]: 30%
Inhibition [9]: complete reversible inhibition observed
inhibition at 100 µM [10]: 100%
IC50 [2]: 30 µM
IC50 (Sulfotransferase 1E1 [11]): 0.25 µM
inhibition [8]: 66%

Structure (SMILES): CO/N=C/c1cc(OC)c(O)c(OC)c1
Inhibition [1]: 37%

Next, values leading:

Inhibition [1]: 70%
Structure (SMILES): CO/N=C/c1ccc(-c2ccc(Cl)cc2)o1

Inhibition [1]: 55%
Structure (SMILES): CO/N=C/C(=C/c1ccco1)c1ccccc1

Inhibition [1]: 25%
Structure (SMILES): CO/N=C/c1cccc(F)c1O

Inhibition [1]: 45%
Structure (SMILES): CO/N=C/c1c(N)oc2ccccc2c1=O

Inhibition [1]: 65%
Structure (SMILES): CO/N=C/c1ccc([N+](=O)[O-])s1

IC50 [2]: > 1000 µM
inhibition at 800 µM [3]: 40%
Structure (SMILES): CO/N=C/c1coc2c(Cl)cc(Cl)cc2c1=O

Inhibition [1]: 50%
Structure (SMILES): CO/N=C/c1ccc(-c2cccc(Cl)c2)o1

Inhibition [1]: 35%
Structure (SMILES): CO/N=C/c1coc2cc(C)c(C)cc2c1=O

Inhibition [1]: 85%
Structure (SMILES): CO/N=C/c1coc2ccc(Br)cc2c1=O

Inhibition [1]: 34%
Structure (SMILES): CO/N=C/c1c(O)ccc2ccccc12

From ChEMBL document CHEMBL1135027, “Tyrosylprotein sulfotransferase inhibitors generated by combinatorial target-guided ligand assembly” (Bioorg Med Chem Lett, 2002)
